In this assay the test system is B16 melanoma cells. The assay can be described thus: B16 melanoma test (test 1). The settings on record: Mus musculus, 50 /ug/ml, aqueous suspension, incubation 20 hours, cells counted 48 hours after start. The assay is classed as cell-based. How it is done:
B16 melanoma cells grow as a "mono]ayer". The doubling time of these cells in a cell culture is 12-16 hours.
On day 0, a quantity of […] B16 melanoma cells is introduced in each cell culture dish.
On day 1 the compounds to be examined are vortexed in the presence of glass beads. The compound to be tested is then added to the dishes with melanoma celles in the desired quantity. The incubation takes place at 37°C for 20 hours in a C02 incubator. The incubation is terminated by removing the culture medium with therein the compound to be tested, after which the cells are wahsed once and fresh medium is added.
Forty-eight hours after the beginning of the incubation the quantity of cells in each dish is measured by means of a microcell Coulter Counter. The results thus obtained are expressed by indicating the activity of the compounds by 1+, 2+, 3+, 4+ or 5+ having the following meanings: • 1+: cell growth is inhibited by 1-20% with respect to the control test • 2+: cell growth is inhibited by 21-40% with respect to the control test • 3+: cell growth is inhibited by 41-60% with respect to the control test • 4+: cell growth is inhibited by 61-80% with respect to the control test • 5+: cell growth is inhibited by 81-100% with respect to the control test.
Sensitivity of B16 melanoma cells.
In the above-described manner, various compounds according to the invention were tested in dosages of 50 /ug/ml in the form of an aqueous suspension.
On to `O=C(NC(=O)c1c(O)cccc1Cl)Nc1c(F)c(F)c(F)c(F)c1F` [compound 1], for which the inhibition at 50 µg/mL was 61 to 80%.
With `O=C(NC(=O)c1c(F)c(F)c(F)c(F)c1F)Nc1ccc(O)c(C(F)(F)F)c1` [compound 2], the inhibition at 50 µg/mL is 81 to 100%.
The figure for `CN(C)c1cccc(F)c1C(=O)NC(=O)Nc1ccc(Cl)cc1` [compound 3] is 81 to 100%; for `O=C(NC(=O)c1c(F)cccc1F)Nc1ccc(C(O)(C(F)(F)F)C(F)(F)F)cc1` [compound 4] it is 81 to 100%.
On to `CCOC(=O)c1ccc(NC(=O)NC(=O)c2c(F)cccc2F)cc1` [compound 5], for which the inhibition at 50 µg/mL lay within 41 to 60%.
As to `O=C(NC(=O)c1c(F)c(F)c(F)c(F)c1F)Nc1c(F)c(F)c(F)c(F)c1F` [compound 6], the inhibition at 50 µg/mL lay in the range of 81 to 100%.
`O=C(NC(=O)c1c(F)c(F)c(F)c(F)c1F)Nc1ccc(Cl)cc1` [compound 7]: the inhibition at 50 µg/mL lay within 61 to 80%.
Regarding `Nc1ccc(C(=O)NC(=O)Nc2ccccc2N)cc1` [compound 8], the inhibition at 50 µg/mL fell in the range of 1 to 20%.
Compound `Nc1cc(N)c(Cl)c(C(=O)NC(=O)Nc2ccc(Cl)cc2)c1Cl` [compound 9] had an inhibition at 50 µg/mL of 21 to 40%.
Turning to `O=C(NC(=O)c1ccccc1N1CCCCC1)Nc1ccc(C(F)(F)F)cc1` [compound 10], the inhibition at 50 µg/mL lay within 1 to 20%.
Turning to `COc1ccc(NC(=O)NC(=O)c2c(F)cccc2N(C)C)cc1` [compound 11], the inhibition at 50 µg/mL was in the range of 81 to 100%.
The result for `CN(C)c1cccc(F)c1C(=O)NC(=O)Nc1c(F)c(F)c(F)c(F)c1F` [compound 12] reads 61 to 80%.
`Nc1ccccc1C(=O)NC(=O)Nc1ccc(Cl)cc1` [compound 13]: the inhibition at 50 µg/mL was in the range of 1 to 20%.
With `CC(Oc1ccc(NC(=O)NC(=O)c2c(F)cccc2F)cc1)c1ccncc1` (centres unmarked) [compound 14], the inhibition at 50 µg/mL was 61 to 80%.
Compound `CN(C)c1ccccc1C(=O)NC(=O)Nc1ccc(Cl)cc1` [compound 15] returned an inhibition at 50 µg/mL of 81 to 100%.
As to `O=C(NC(=O)Nc1ccc(Cl)cc1)NC(=O)c1c(O)cccc1Cl` [compound 16], the inhibition at 50 µg/mL is 61 to 80%.
As to `CCN(CC)c1cccc(F)c1C(=O)NC(=O)Nc1ccc(Cl)cc1` [compound 17], the inhibition at 50 µg/mL was 21 to 40%.

The record behind these values is patent EP0193249A2, “Benzoyl urea derivatives having ati-tumor activity” (DUPHAR INTERNATIONAL RESEARCH B.V, priority 1985, dated 1986).
